Reference: patent US10988477B2 (Merck Patent GmbH, priority 2018, dated 2021)

Biological target: GCN2 kinase (Homo sapiens, UniProt Q9P2K8)
Experiment: GCN2 enzyme inhibition assay (Transcreener ADP2 fluorescence polarization)
Type: biochemical
Settings: Enzyme activity for compounds of Formula IV; Ki(app), 280 μM ATP, 25° C.
Summary of the method: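 ADP formation read by Transcreener FP after a 1 h, 25 °C kinase reaction containing 280 μM ATP, 200 μM (RS)7 substrate and 4 nM GCN2, pH 7.5 Tris buffer. Compounds (0–8 μM final) were added 10 min before ATP. Percent inhibition gave IC50 and apparent Ki via tight-binding fit.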

Sequence of GCN2 kinase (Q9P2K8 whole entry): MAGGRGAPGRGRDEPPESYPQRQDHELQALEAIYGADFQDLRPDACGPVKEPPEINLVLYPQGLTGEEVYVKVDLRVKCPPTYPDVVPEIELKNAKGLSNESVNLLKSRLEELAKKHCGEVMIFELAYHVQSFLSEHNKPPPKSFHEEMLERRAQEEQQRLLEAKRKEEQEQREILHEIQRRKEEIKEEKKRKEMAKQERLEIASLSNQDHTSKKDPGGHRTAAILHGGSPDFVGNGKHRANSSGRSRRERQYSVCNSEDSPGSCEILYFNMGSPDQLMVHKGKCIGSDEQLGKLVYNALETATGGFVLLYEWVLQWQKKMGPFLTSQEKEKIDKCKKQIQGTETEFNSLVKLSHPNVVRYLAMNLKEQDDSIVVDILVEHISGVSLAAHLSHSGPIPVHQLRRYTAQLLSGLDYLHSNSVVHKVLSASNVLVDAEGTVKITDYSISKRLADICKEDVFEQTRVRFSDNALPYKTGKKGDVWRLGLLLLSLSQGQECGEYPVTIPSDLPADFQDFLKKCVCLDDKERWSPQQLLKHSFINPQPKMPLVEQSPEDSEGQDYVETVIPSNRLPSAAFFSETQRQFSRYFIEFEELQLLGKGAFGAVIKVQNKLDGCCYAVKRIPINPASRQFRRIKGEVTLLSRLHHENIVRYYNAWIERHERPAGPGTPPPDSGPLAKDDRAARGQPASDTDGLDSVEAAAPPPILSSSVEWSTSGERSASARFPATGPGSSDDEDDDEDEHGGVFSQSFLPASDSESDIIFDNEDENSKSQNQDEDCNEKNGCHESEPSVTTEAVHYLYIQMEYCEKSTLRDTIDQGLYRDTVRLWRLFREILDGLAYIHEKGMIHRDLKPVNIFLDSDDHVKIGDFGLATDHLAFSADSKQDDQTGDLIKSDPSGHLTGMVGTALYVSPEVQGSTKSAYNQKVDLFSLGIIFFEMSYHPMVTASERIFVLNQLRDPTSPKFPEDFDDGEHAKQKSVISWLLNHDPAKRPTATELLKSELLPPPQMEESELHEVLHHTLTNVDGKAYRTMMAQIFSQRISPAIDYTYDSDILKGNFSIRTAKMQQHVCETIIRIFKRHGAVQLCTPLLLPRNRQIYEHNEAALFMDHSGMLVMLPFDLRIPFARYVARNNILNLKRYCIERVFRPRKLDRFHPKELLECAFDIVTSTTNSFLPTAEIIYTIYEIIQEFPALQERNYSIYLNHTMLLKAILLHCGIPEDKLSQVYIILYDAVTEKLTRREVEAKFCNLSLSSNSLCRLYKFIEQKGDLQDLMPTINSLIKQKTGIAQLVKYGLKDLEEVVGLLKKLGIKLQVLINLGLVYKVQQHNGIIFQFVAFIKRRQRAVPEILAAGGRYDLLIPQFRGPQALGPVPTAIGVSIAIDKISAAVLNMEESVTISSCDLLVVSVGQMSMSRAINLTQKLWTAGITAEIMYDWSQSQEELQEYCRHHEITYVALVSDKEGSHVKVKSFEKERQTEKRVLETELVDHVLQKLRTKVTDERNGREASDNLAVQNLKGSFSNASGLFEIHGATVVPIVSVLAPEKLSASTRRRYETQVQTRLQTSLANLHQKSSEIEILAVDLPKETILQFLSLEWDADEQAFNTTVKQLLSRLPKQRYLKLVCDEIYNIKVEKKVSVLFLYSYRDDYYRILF

| Ki | Structure (SMILES) |
| --- | --- |
| 100 to 1000 nM | CC1CCN(c2ccnc(-c3cnc4cnc(C(F)(F)F)cn34)n2)CC1 [IV-517, 3-(4-(4-Methylpiperidin-1-yl)pyrimidin-2-yl)-6-(trifluoromethyl)imidazo[1,2-a]pyrazine] |
| 10 to 100 nM | CC1CCCCN1c1ccnc(-c2cnc3cnc(C(F)(F)F)cn23)n1 (stereo not shown) [IV-518, 3-(4-(2-Methylpiperidin-1-yl)pyrimidin-2-yl)-6-(trifluoromethyl)imidazo[1,2-a]pyrazine] |
| 10 to 100 nM | CC1CCCN(c2ccnc(-c3cnc4cnc(C(F)(F)F)cn34)n2)C1C (stereo not shown) [IV-519, 3-(4-(2,3-Dimethylpiperidin-1-yl)pyrimidin-2-yl)-6-(trifluoromethyl)imidazo[1,2-a]pyrazine] |
| 100 to 1000 nM | CC(C)(O)C1CCN(c2ccnc(-c3cnc4cnc(C(F)(F)F)cn34)n2)C1 (stereo not shown) [IV-520, 2-(1-(2-(6-(Trifluoromethyl)imidazo[1,2-a]pyrazin-3-yl)pyrimidin-4-yl)pyrrolidin-3-yl)propan-2-ol] |
| 100 to 1000 nM | FC(F)(F)c1cn2c(-c3nccc(N4CCC5(CCOCC5)C4)n3)cnc2cn1 [IV-522, 2-(2-(6-(Trifluoromethyl)imidazo[1,2-a]pyrazin-3-yl)pyrimidin-4-yl)-8-oxa-2-azaspiro[4.5]decane] |
| 100 to 1000 nM | FC(F)(F)c1cn2c(-c3nccc(N4CCCC5(COC5)C4)n3)cnc2cn1 [IV-523, 6-(2-(6-(Trifluoromethyl)imidazo[1,2-a]pyrazin-3-yl)pyrimidin-4-yl)-2-oxa-6-azaspiro[3.5]nonane] |
| 100 to 1000 nM | CC(=O)NCC1CCCN(c2ccnc(-c3cnc4cnc(C(F)(F)F)cn34)n2)C1 (stereo not shown) [IV-526, N-((1-(2-(6-(Trifluoromethyl)imidazo[1,2-a]pyrazin-3-yl)pyrimidin-4-yl)piperidin-3-yl)methyl)acetamide] |
| 100 to 1000 nM | NC(=O)NCC1CCCN(c2ccnc(-c3cnc4cnc(C(F)(F)F)cn34)n2)C1 (stereo not shown) [IV-527, 1-((1-(2-(6-(Trifluoromethyl)imidazo[1,2-a]pyrazin-3-yl)pyrimidin-4-yl)piperidin-3-yl)methyl)urea] |
| 100 to 1000 nM | CC(=O)NC1CCN(c2ccnc(-c3cnc4cnc(C(F)(F)F)cn34)n2)C1 (stereo not shown) [IV-528, N-(1-(2-(6-(Trifluoromethyl)imidazo[1,2-a]pyrazin-3-yl)pyrimidin-4-yl)pyrrolidin-3-yl)acetamide] |
| 100 to 1000 nM | NC(=O)CC1CCCN(c2ccnc(-c3cnc4cnc(C(F)(F)F)cn34)n2)C1 (stereo not shown) [IV-529, 2-(1-(2-(6-(Trifluoromethyl)imidazo[1,2-a]pyrazin-3-yl)pyrimidin-4-yl)piperidin-3-yl)acetamide] |
| 100 to 1000 nM | CC(=O)NC1CCCN(c2ccnc(-c3cnc4cnc(C(F)(F)F)cn34)n2)C1 (stereo not shown) [IV-530, N-(1-(2-(6-(Trifluoromethyl)imidazo[1,2-a]pyrazin-3-yl)pyrimidin-4-yl)piperidin-3-yl)acetamide] |
| 100 to 1000 nM | CC1(C)CN(c2ccnc(-c3cnc4cnc(C(F)(F)F)cn34)n2)CCO1 [IV-531, 2,2-Dimethyl-4-(2-(6-(trifluoromethyl)imidazo[1,2-a]pyrazin-3-yl)pyrimidin-4-yl)morpholine] |
| 100 to 1000 nM | CC1(C)COCCN1c1ccnc(-c2cnc3cnc(C(F)(F)F)cn23)n1 [IV-532, 3,3-Dimethyl-4-(2-(6-(trifluoromethyl)imidazo[1,2-a]pyrazin-3-yl)pyrimidin-4-yl)morpholine] |
| 100 to 1000 nM | O=C1NCCC12CCN(c1ccnc(-c3cnc4cnc(C(F)(F)F)cn34)n1)C2 (stereo not shown) [IV-533, 7-(2-(6-(Trifluoromethyl)imidazo[1,2-a]pyrazin-3-yl)pyrimidin-4-yl)-2,7-diazaspiro[4.4]nonan-1-one] |
| 100 to 1000 nM | O=C1CC2(CCN(c3ccnc(-c4cnc5cnc(C(F)(F)F)cn45)n3)C2)CN1 (stereo not shown) [IV-534, 7-(2-(6-(Trifluoromethyl)imidazo[1,2-a]pyrazin-3-yl)pyrimidin-4-yl)-2,7-diazaspiro[4.4]nonan-3-one] |
| 100 to 1000 nM | NS(=O)(=O)C1CCCN(c2ccnc(-c3cnc4cnc(C(F)(F)F)cn34)n2)C1 (stereo not shown) [IV-536, 1-(2-(6-(Trifluoromethyl)imidazo[1,2-a]pyrazin-3-yl)pyrimidin-4-yl)piperidine-3-sulfonamide] |
| 100 to 1000 nM | CC(=O)NCC1CCN(c2ccnc(-c3cnc4cnc(C(F)(F)F)cn34)n2)C1 (stereo not shown) [IV-537, N-((1-(2-(6-(Trifluoromethyl)imidazo[1,2-a]pyrazin-3-yl)pyrimidin-4-yl)pyrrolidin-3-yl)methyl)acetamide] |
| 100 to 1000 nM | CC1(C(N)=O)CCCN(c2ccnc(-c3cnc4cnc(C(F)(F)F)cn34)n2)C1 (stereo not shown) [IV-539, 3-Methyl-1-(2-(6-(trifluoromethyl)imidazo[1,2-a]pyrazin-3-yl)pyrimidin-4-yl)piperidine-3-carboxamide] |
| 100 to 1000 nM | O=C1NCCC12CCCN(c1ccnc(-c3cnc4cnc(C(F)(F)F)cn34)n1)C2 (stereo not shown) [IV-542, 7-(2-(6-(Trifluoromethyl)imidazo[1,2-a]pyrazin-3-yl)pyrimidin-4-yl)-2,7-diazaspiro[4.5]decan-1-one] |

| Ki | Structure (SMILES) |
| --- | --- |
| 100 to 1000 nM | FC(F)(F)c1cn2c(-c3nccc(N4CCCC(n5cncn5)C4)n3)cnc2cn1 (stereo not shown) [IV-547, 3-(4-(3-(1H-1,2,4-Triazol-1-yl)piperidin-1-yl)pyrimidin-2-yl)-6-(trifluoromethyl)imidazo[1,2-a]pyrazine] |
| 100 to 1000 nM | FC(F)(F)c1cn2c(-c3nccc(N4CCC(c5ccncc5)C4)n3)cnc2cn1 (stereo not shown) [IV-550, 3-(4-(3-(Pyridin-4-yl)pyrrolidin-1-yl)pyrimidin-2-yl)-6-(trifluoromethyl)imidazo[1,2-a]pyrazine] |
| 100 to 1000 nM | FC(F)(F)c1cn2c(-c3nccc(N4CCC(c5ccccn5)C4)n3)cnc2cn1 (stereo not shown) [IV-552, 3-(4-(3-(Pyridin-2-yl)pyrrolidin-1-yl)pyrimidin-2-yl)-6-(trifluoromethyl)imidazo[1,2-a]pyrazine] |
| 100 to 1000 nM | FC(F)(F)c1cn2c(-c3nccc(N4CCC(N5CCOCC5)C4)n3)cnc2cn1 (stereo not shown) [IV-553, 4-(1-(2-(6-(Trifluoromethyl)imidazo[1,2-a]pyrazin-3-yl)pyrimidin-4-yl)pyrrolidin-3-yl)morpholine] |
| 100 to 1000 nM | CN1CCCC2(CCN(c3ccnc(-c4cnc5cnc(C(F)(F)F)cn45)n3)C2)C1=O (stereo not shown) [IV-554, 7-Methyl-2-(2-(6-(trifluoromethyl)imidazo[1,2-a]pyrazin-3-yl)pyrimidin-4-yl)-2,7-diazaspiro[4.5]decan-6-one] |
| 100 to 1000 nM | CC1CN(c2ccnc(-c3cnc4cnc(C(F)(F)F)cn34)n2)CC1C (stereo not shown) [IV-555, 3-(4-(3,4-Dimethylpyrrolidin-1-yl)pyrimidin-2-yl)-6-(trifluoromethyl)imidazo[1,2-a]pyrazine] |
| 100 to 1000 nM | FC(F)(F)c1cn2c(-c3nccc(N4CCC(c5ccccc5)C4)n3)cnc2cn1 (stereo not shown) [IV-556, 3-(4-(3-Phenylpyrrolidin-1-yl)pyrimidin-2-yl)-6-(trifluoromethyl)imidazo[1,2-a]pyrazine] |
| 100 to 1000 nM | O=C1CCCN1CC1CCN(c2ccnc(-c3cnc4cnc(C(F)(F)F)cn34)n2)C1 (stereo not shown) [IV-557, 1-((1-(2-(6-(Trifluoromethyl)imidazo[1,2-a]pyrazin-3-yl)pyrimidin-4-yl)pyrrolidin-3-yl)methyl)pyrrolidin-2-one] |
| 100 to 1000 nM | FC(F)(F)c1cn2c(-c3nccc(N4CCC(COc5ccccc5)C4)n3)cnc2cn1 (stereo not shown) [IV-559, 3-(4-(3-(Phenoxymethyl)pyrrolidin-1-yl)pyrimidin-2-yl)-6-(trifluoromethyl)imidazo[1,2-a]pyrazine] |
| 100 to 1000 nM | O=C1NC(=O)C2(CCN(c3ccnc(-c4cnc5cnc(C(F)(F)F)cn45)n3)C2)N1 (stereo not shown) [IV-560, 7-(2-(6-(Trifluoromethyl)imidazo[1,2-a]pyrazin-3-yl)pyrimidin-4-yl)-1,3,7-triazaspiro[4.4]nonane-2,4-dione] |
| 100 to 1000 nM | FC(F)(F)c1cn2c(-c3nccc(N4CCCC4Cc4ccccc4)n3)cnc2cn1 (stereo not shown) [IV-561, 3-(4-(2-Benzylpyrrolidin-1-yl)pyrimidin-2-yl)-6-(trifluoromethyl)imidazo[1,2-a]pyrazine] |
| 100 to 1000 nM | FC(F)(F)c1cn2c(-c3nccc(N4CCC(n5ccnc5)C4)n3)cnc2cn1 (stereo not shown) [IV-564, 3-(4-(3-(1H-Imidazol-1-yl)pyrrolidin-1-yl)pyrimidin-2-yl)-6-(trifluoromethyl)imidazo[1,2-a]pyrazine] |
| 100 to 1000 nM | CN1CC2(CCN(c3ccnc(-c4cnc5cnc(C(F)(F)F)cn45)n3)C2)OCC1=O (stereo not shown) [IV-565, 9-Methyl-2-(2-(6-(trifluoromethyl)imidazo[1,2-a]pyrazin-3-yl)pyrimidin-4-yl)-6-oxa-2,9-diazaspiro[4.5]decan-8-one] |
| 100 to 1000 nM | NC(=O)CN1CCCN(c2ccnc(-c3cnc4cnc(C(F)(F)F)cn34)n2)CC1 [IV-566, 2-(4-(2-(6-(Trifluoromethyl)imidazo[1,2-a]pyrazin-3-yl)pyrimidin-4-yl)-1,4-diazepan-1-yl)acetamide] |
| 100 to 1000 nM | O=C1NCCN2CCN(c3ccnc(-c4cnc5cnc(C(F)(F)F)cn45)n3)CC12 (stereo not shown) [IV-568, 8-(2-(6-(Trifluoromethyl)imidazo[1,2-a]pyrazin-3-yl)pyrimidin-4-yl)hexahydro-2H-pyrazino[1,2-a]pyrazin-1(6H)-one] |
| 100 to 1000 nM | CC1CN(c2ccnc(-c3cnc4cnc(C(F)(F)F)cn34)n2)CC1N1CCOCC1 (stereo not shown) [IV-569, 4-(4-Methyl-1-(2-(6-(trifluoromethyl)imidazo[1,2-a]pyrazin-3-yl)pyrimidin-4-yl)pyrrolidin-3-yl)morpholine] |
| 100 to 1000 nM | O=S1(=O)CCC2CN(c3ccnc(-c4cnc5cnc(C(F)(F)F)cn45)n3)CC21 (stereo not shown) [IV-570, 5-(2-(6-(Trifluoromethyl)imidazo[1,2-a]pyrazin-3-yl)pyrimidin-4-yl)hexahydro-2H-thieno[2,3-a]pyrrole 1,1-dioxide] |
| 100 to 1000 nM | O=C1CN(c2ccnc(-c3cnc4cnc(C(F)(F)F)cn34)n2)CC2CCCCN12 (stereo not shown) [IV-571, 2-(2-(6-(Trifluoromethyl)imidazo[1,2-a]pyrazin-3-yl)pyrimidin-4-yl)octahydro-4H-pyrido[1,2-a]pyrazin-4-one] |
